Source: patent US12421210B2, “Fused bicyclic heterocycles as therapeutic agents” (NEW YORK UNIVERSITY, priority 2018, dated 2025)

Target: human NAMPT enzyme (His-hNAMPT) (Homo sapiens (Human), UniProt P43490)
Assay: NAMPT enzymatic inhibition assay (fluorescence, NADH product)
Format: biochemical
Details: [HDB]; read-out: NAMPT IC50 (μM) [HDB]

human NAMPT enzyme (His-hNAMPT), sequence (P43490 whole entry): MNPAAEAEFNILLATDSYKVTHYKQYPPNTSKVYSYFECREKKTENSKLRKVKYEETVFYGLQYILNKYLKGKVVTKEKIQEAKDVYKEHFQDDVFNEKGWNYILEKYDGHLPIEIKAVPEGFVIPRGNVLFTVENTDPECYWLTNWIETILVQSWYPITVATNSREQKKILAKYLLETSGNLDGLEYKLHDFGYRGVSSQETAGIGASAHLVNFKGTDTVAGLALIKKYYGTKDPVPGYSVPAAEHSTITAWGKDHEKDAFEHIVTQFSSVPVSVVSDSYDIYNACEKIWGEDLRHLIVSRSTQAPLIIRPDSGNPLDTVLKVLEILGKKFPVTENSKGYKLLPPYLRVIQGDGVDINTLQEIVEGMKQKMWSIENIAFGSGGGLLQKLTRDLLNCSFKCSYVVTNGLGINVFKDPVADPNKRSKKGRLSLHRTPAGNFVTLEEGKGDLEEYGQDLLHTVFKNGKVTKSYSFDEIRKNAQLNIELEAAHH

Row | Compound | IC50 [µM]
1 | Cc1cc(N2C[C@@H]3[C@@H](CCNC(=O)/C=C/c4cccnc4)[C@@H]3C2)cc(C)n1 [Example 307, (E)-N-(2-((1R,5S,6s)-3-(2,6-dimethylpyridin-4-yl)-3-azabicyclo[3.1.0]hexan-6-yl)ethyl)-3-(pyridin-3-yl)acrylamide] | 0.01 to 0.49
2 | O=C(/C=C/c1cccnc1)NCC[C@@H]1[C@H]2CN(c3nc(OCc4ccccc4)ncc3F)C[C@@H]12 [Example 308, (E)-N-(2-((1R,5S,6s)-3-(2-(benzyloxy)-5-fluoropyrimidin-4-yl)-3-azabicyclo[3.1.0]hexan-6-yl)ethyl)-3-(pyridin-3-yl)acrylamide] | < 0.01
3 | COC(=O)C(c1ccccc1)N1C[C@@H]2[C@@H](CCNC(=O)/C=C/c3cccnc3)[C@@H]2C1 (stereo partly drawn) [Example 309, methyl 2-phenyl-2-((1R,5S,6s)-6-(2-((E)-3-(pyridin-3-yl)acrylamido)ethyl)-3-azabicyclo[3.1.0]hexan-3-yl)acetate] | < 0.01
4 | O=C(/C=C/c1cccnc1)NCC[C@@H]1[C@H]2CN(c3ccnc(OC4CCOCC4)c3)C[C@@H]12 [Example 310, (E)-3-(Pyridin-3-yl)-N-(2-((1R,5S,6s)-3-(2-((tetrahydro-2H-pyran-4-yl)oxy)pyridin-4-yl)-3-azabicyclo[3.1.0]hexan-6-yl)ethyl)acrylamide] | 0.01 to 0.49
5 | CN(C)CCOc1ncc(F)c(N2C[C@@H]3[C@@H](CCNC(=O)/C=C/c4cccnc4)[C@@H]3C2)n1 [Example 311, (E)-N-(2-((1R,5S,6s)-3-(2-(2-(dimethylamino)ethoxy)-5-fluoropyrimidin-4-yl)-3-azabicyclo[3.1.0]hexan-6-yl)ethyl)-3-(pyridin-3-yl)acrylamide] | < 0.01
6 | Nc1ncc(F)c(N2C[C@@H]3[C@@H](CCNC(=O)/C=C/c4cccnc4)[C@@H]3C2)n1 [Example 312, (E)-N-(2-((1R,5S,6s)-3-(2-amino-5-fluoropyrimidin-4-yl)-3-azabicyclo[3.1.0]hexan-6-yl)ethyl)-3-(pyridin-3-yl)acrylamide] | < 0.01
7 | COc1ncc(F)c(N2C[C@@H]3[C@@H](CCNC(=O)/C=C/c4ccc(F)nc4)[C@@H]3C2)n1 [Example 313, (E)-N-(2-((1R,5S,6s)-3-(5-fluoro-2-methoxypyrimidin-4-yl)-3-azabicyclo[3.1.0]hexan-6-yl)ethyl)-3-(6-fluoropyridin-3-yl)acrylamide] | < 0.01
8 | O=C(/C=C/c1cccnc1)NCC[C@@H]1[C@H]2CN(c3nc(OCCO)ncc3F)C[C@@H]12 [Example 314, (E)-N-(2-((1R,5S,6s)-3-(5-fluoro-2-(2-hydroxyethoxy)pyrimidin-4-yl)-3-azabicyclo[3.1.0]hexan-6-yl)ethyl)-3-(pyridin-3-yl)acrylamide] | 0.01 to 0.49
9 | CC(c1ncccn1)N1C[C@@H]2[C@@H](CCNC(=O)/C=C/c3cccnc3)[C@@H]2C1 (stereo partly drawn) [Example 315, (E)-3-(pyridin-3-yl)-N-(2-((1R,5S,6s)-3-(1-(pyrimidin-2-yl)ethyl)-3-azabicyclo[3.1.0]hexan-6-yl)ethyl)acrylamide] | 0.01 to 0.49
10 | O=C(/C=C/c1cccnc1)NCC[C@@H]1[C@H]2CN(Cc3cnc(Cl)nc3)C[C@@H]12 [Example 316] | 0.01 to 0.49
11 | CNC(=O)C(c1ccccc1)N1C[C@@H]2[C@@H](CCNC(=O)/C=C/c3cccnc3)[C@@H]2C1 (stereo partly drawn) [Example 317, (E)-N-(2-((1R,5S,6s)-3-(2-(methylamino)-2-oxo-1-phenylethyl)-3-azabicyclo[3.1.0]hexan-6-yl)ethyl)-3-(pyridin-3-yl)acrylamide] | < 0.01
12 | CCN(CC)C(=O)C(c1ccccc1)N1C[C@@H]2[C@@H](CCNC(=O)/C=C/c3cccnc3)[C@@H]2C1 (stereo partly drawn) [Example 318, (E)-N-(2-((1R,5S,6s)-3-(2-(diethylamino)-2-oxo-1-phenylethyl)-3-azabicyclo[3.1.0]hexan-6-yl)ethyl)-3-(pyridin-3-yl)acrylamide] | < 0.01
13 | CC(c1ccncc1)N1C[C@@H]2[C@@H](CCNC(=O)/C=C/c3cccnc3)[C@@H]2C1 (stereo partly drawn) [Example 319, (E)-3-(pyridin-3-yl)-N-(2-((1R,5S,6s)-3-(1-(pyridin-4-yl)ethyl)-3-azabicyclo[3.1.0]hexan-6-yl)ethyl)acrylamide] | < 0.01
